Results from patent US7138246B2, “Methods for identifying or screening for agents that modulate 17β-HSD3” (Bristol-Myers Squibb Company, priority 2004, dated 2006).

Tests used:
AR = biological target: T1, AR (Homo sapiens, UniProt P10275, Q868H); assay: testosterone-stimulated parental MDA-MB453 (direct effects on AR); assay type: cell-based
T1 construct: endogenous in cells; host or cells: parental MDA-MB453
T1 sequence (P10275 1-920 Q868H): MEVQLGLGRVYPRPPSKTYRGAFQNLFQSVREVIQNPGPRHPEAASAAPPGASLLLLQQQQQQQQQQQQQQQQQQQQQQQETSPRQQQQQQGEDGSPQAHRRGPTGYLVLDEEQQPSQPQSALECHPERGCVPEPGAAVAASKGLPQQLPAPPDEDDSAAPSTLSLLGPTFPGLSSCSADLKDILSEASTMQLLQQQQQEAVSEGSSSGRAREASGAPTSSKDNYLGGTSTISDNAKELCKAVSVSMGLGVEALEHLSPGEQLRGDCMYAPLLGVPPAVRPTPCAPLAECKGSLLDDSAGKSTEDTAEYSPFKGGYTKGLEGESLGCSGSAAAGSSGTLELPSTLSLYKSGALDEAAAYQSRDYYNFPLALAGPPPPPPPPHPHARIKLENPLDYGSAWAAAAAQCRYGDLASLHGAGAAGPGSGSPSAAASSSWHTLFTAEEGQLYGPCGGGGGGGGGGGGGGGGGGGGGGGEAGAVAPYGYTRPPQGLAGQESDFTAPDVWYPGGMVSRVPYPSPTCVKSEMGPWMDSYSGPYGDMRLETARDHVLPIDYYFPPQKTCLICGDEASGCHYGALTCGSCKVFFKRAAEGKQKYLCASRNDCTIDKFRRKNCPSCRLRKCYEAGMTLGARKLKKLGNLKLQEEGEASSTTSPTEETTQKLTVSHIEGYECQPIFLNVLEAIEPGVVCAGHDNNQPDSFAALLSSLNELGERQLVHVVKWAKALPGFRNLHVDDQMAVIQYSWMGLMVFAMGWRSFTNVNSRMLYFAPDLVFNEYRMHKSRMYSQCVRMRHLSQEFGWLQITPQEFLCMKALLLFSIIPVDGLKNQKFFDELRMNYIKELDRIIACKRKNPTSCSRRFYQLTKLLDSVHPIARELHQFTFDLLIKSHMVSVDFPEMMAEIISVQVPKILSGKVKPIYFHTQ

17β-HSD3 = biological target: T2, 17β-HSD3 (Homo sapiens, UniProt P37058); assay: TLC assay of androstenedione to testosterone conversion in Shinogi-17β-HSD3 cells; assay type: cell-based; settings: Shinogi-17β-HSD3 cells incubated with {3H}-androstenedione; read-out: IC50 estimated by TLC assay
T2 sequence (P37058 1-310): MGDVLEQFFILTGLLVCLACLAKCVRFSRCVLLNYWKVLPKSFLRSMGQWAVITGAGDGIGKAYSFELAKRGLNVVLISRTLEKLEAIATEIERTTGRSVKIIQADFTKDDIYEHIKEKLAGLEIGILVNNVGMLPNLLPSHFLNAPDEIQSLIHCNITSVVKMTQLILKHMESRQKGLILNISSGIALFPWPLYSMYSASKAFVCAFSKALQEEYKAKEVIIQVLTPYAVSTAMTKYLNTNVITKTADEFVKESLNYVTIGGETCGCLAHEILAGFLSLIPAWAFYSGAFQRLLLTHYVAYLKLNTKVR
Experimental: Cells were plated in 24-well tissue culture plates at 5×10^4 cells per well in their appropriate media. After allowing the cells to adhere for 24 hours, the media was changed to contain 10% cFBS (charcoal treated FBS) (300 μL) per well and 0.5μ Ci of the radiolabeled hormones were added to each well. After 3 hours, the supernatant was removed and 500 μL of extraction buffer (3 parts Ethyl Acetate: 1 part Acetone) was added to each sample and vortexed extensively. The organic layer was carefully removed and dried down in siliconized 1.5 mL microfuge tubes (National Scientific Supply Co.). […] The BAS screens were then read using a Fujifilm PhosphoImager FLA-2000 and spots were quantitated using the Fujifilm MacBas imaging/densitometry program.
The characterization of breast and prostate tumor cell lines for the 17β-HSD activities enabled the identification of cells which could be engineered for preferred 17β-HSD3 activity to monitor the cellular effects of inhibitors. […] In addition, 17β-HSD mRNA was not detected at appreciable levels in these cells by RT-PCR (data not shown). […]
To confirm that this class of compounds was inhibiting 17β-HSD3, Shinogi-17β-HSD3 cells incubated with {3H}-androstenedione were analyzed by TLC assay following 2-[(3-chloro-4-hydroxybenzoyl)amino]-N-[2-(2-methoxyphenyl)ethyl]-5-phenoxybenzamide treatment.

[1] = tested on: testosterone biosynthesis; assay: testosterone levels in intact rats; assay type: in vivo; settings: p.o., over 14 days, FIG. 6
Experimental: Intact rats were administered p.o. the indicated doses of 18β-glycyrrhetinic acid over 14 days and testosterone levels were determined.

Structure (SMILES)	effects on testosterone-stimulated parental MDA-MB453 (AR)	IC50 (17β-HSD3)	testosterone biosynthesis (testosterone levels) [1]
C[C@]12C=CC(=O)C=C1C(=O)C[C@@H]1[C@@H]2CC[C@]2(C)C(=O)CC[C@@H]12 [1,4-androstadiene-1,6,17-trione]	No effects were observed		
COc1ccccc1CCNC(=O)c1cc(Oc2ccccc2)ccc1NC(=O)c1ccc(O)c(Cl)c1 [2-[(3-chloro-4-hydroxybenzoyl)amino]-N-[2-(2-methoxyphenyl)ethyl]-5-phenoxybenzamide]		~300 nM	
CC1(C)[C@@H](O)CC[C@]2(C)[C@H]3C(=O)C=C4[C@@H]5C[C@@](C)(C(=O)O)CC[C@]5(C)CC[C@@]4(C)[C@]3(C)CC[C@@H]12 [18β-glycyrrhetinic acid]	No effects were observed		inhibition of testosterone biosynthesis
